One assay has as its target T1, FLT3 (Homo sapiens, UniProt P36888).
T1 construct: using full-length kinases in the presence of cellular concentrations of ATP in live, uncompromised cells; assay by Reaction Biology; host or cells: HEK-293 (ATCC), transient transfection
T1 sequence (P36888 27-993): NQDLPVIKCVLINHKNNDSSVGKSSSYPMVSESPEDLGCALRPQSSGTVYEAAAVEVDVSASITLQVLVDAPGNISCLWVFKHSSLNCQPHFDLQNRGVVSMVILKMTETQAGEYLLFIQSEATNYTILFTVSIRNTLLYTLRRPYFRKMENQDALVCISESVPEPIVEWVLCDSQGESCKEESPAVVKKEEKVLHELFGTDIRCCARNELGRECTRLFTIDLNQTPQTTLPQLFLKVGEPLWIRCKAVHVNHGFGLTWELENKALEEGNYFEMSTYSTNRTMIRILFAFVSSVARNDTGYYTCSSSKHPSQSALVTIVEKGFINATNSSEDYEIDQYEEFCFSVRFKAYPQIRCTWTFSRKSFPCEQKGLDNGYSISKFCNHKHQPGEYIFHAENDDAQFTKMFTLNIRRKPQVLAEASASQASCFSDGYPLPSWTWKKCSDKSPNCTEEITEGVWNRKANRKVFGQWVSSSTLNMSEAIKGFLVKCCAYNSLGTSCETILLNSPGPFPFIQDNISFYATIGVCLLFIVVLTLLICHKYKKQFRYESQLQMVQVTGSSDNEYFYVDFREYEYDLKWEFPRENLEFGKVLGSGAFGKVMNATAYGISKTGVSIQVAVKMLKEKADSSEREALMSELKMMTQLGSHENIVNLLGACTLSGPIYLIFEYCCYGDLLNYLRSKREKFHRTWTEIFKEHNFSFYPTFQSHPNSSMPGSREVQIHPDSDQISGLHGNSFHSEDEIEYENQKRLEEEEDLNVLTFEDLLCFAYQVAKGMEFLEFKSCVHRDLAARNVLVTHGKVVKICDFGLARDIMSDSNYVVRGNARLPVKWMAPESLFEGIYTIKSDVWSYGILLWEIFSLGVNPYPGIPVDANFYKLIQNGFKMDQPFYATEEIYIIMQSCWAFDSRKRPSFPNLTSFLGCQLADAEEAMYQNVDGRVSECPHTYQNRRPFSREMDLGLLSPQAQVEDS
Nature of the assay: DiscoverX KINOMEscan competition binding assay, FLT3. The source says:
(§1) Kinase binding data were obtained for various exemplary compounds prepared according to Examples 1-25 using the DiscoverX KINOMEscan® active site-directed competition binding site-directed assay protocol described below. […] As a result, the data report thermodynamic interaction affinities (Kd values), rather than IC50 values that are dependent on ATP concentrations. The assay uses a DNA-tagged version of the protein kinase, and an immobilized ligand bound to a solid support. Compounds that directly or indirectly prevent kinase binding to the immobilized ligand reduce the amount of kinase captured on the solid support, which is detected using an ultra-sensitive qPCR method. Affinity constants reported from the assay have been reported to be independent of the immobilized ligand used that is coupled to the solid support (See supplemental information in Fabian, M. A. et. al., (2005) Nat. Biotechnol. 23, 329-336; Wodicka, L. M. et. al., (2010) Chem. Biol. 17, 1241-1249.)
(§2) Kinase-tagged T7 phage strains were prepared in an E. coli host derived from the BL21 strain. E. coli were grown to log-phase and infected with T7 phage and incubated with shaking at 32° C. until lysis. The lysates were centrifuged and filtered to remove cell debris. The remaining kinases were produced in HEK-293 cells and subsequently tagged with DNA for qPCR detection. […] The liganded beads were blocked with excess biotin and washed with blocking buffer (SeaBlock (Pierce), 1% BSA, 0.05% Tween 20, 1 mM DTT) to remove unbound ligand and to reduce non-specific binding. […] Test compounds were prepared as 111× stocks in 100% DMSO. Kds were determined using an 11-point 3-fold compound dilution series with three DMSO control points. […] The compounds were then diluted directly into the assays such that the final concentration of DMSO was 0.9%. All reactions were performed in polypropylene 384-well plates. Each was a final volume of 0.02 mL. […] The kinase concentration in the eluates was measured by qPCR.
(§3) Binding constants (Kds) were calculated with a standard dose-response curve using the Hill equation. […]

In the next assay the target is T2, FLT3 ITD, D835V (Homo sapiens, UniProt P36888, D835V/ITD).
T2 sequence (P36888 564-993 D835V): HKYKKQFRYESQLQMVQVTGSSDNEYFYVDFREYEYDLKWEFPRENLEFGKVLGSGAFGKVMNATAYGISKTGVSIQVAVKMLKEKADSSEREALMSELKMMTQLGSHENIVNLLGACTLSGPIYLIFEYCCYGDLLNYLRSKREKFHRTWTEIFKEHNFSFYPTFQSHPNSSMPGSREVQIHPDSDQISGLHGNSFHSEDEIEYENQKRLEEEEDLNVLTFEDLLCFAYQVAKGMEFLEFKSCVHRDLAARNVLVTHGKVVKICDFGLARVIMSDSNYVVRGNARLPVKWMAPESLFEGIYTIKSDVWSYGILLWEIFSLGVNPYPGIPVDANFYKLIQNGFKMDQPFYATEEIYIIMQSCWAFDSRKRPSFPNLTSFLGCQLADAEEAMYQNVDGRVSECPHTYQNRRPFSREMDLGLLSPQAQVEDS
Nature of the assay: DiscoverX KINOMEscan competition binding assay, FLT3 ITD, D835V.
Description: as §1, §2, §3

The target in the next assay is T3, FLT3 ITD, F691L (Homo sapiens, UniProt P36888, F691L/ITD).
T3 sequence (P36888 564-993 F691L): T2 sequence (P36888 564-993 D835V) with F128L, V272D
Nature of the assay: DiscoverX KINOMEscan competition binding assay, FLT3 ITD, F691L.
Description: as §1, §2, §3

Among the data in patent publication US12534469B2 (CHILDREN'S HOSPITAL MEDICAL CENTER, priority 2020, dated 2026) are Kd values, retold here.

In general, pKd refers to the Kd on a negative log10 scale, so that one unit is a factor of ten.

Structures are written as SMILES. Residue numbers refer to the chain shown, from its start. pKd: −log10 of the molar value. Where two headings read alike, the source gives them in different places.

Regarding `COc1cc2ncc(-c3cccc(N[C@H]4CNC[C@@H]4F)n3)n2nc1C1CC1` [Compound 96, 6-(6-cyclopropyl-7-methoxyimidazo[1,2-b]pyridazin-3-yl)-N-((3S,4S)-4-fluoropyrrolidin-3-yl)pyridin-2-amine], the negative logarithm of the Kd (pKd) was 9.51 at FLT3; 10.15 at FLT3 ITD, D835V; 9.43 at FLT3 ITD, F691L.

`COc1cc2ncc(-c3cccc(N[C@@H]4CCNC4)n3)n2nc1C1CC1` [Compound 97, (R)-6-(6-cyclopropyl-7-methoxyimidazo[1,2-b]pyridazin-3-yl)-N-(pyrrolidin-3-yl)pyridin-2-amine]: the negative-log Kd (pKd) on FLT3 is 9.72; on FLT3 ITD, D835V (read-out: FLT3 ITD, D835V Kd), 10.47; on FLT3 ITD, F691L (read-out: FLT3 ITD, F691L Kd), 9.72.

For `COc1cc2ncc(-c3cccc(N[C@H]4CNCC[C@@H]4F)n3)n2nc1C1CC1` [Compound 102, 6-(6-cyclopropyl-7-methoxyimidazo[1,2-b]pyridazin-3-yl)-N-((3S,4S)-4-fluoropiperidin-3-yl)pyridin-2-amine], the pKd on FLT3 was 9.89; at FLT3 ITD, D835V (read-out: FLT3 ITD, D835V Kd), 10.35; on FLT3 ITD, F691L (read-out: FLT3 ITD, F691L Kd), 9.85.
